Measured values as given in patent US10716783B2, “Prolylhydroxylase/ATF4 inhibitors and methods of use for treating neural cell injury or death and conditions resulting therefrom” (CORNELL UNIVERSITY, priority 2013, dated 2020).
pEC50: −log10 of the molar value. Read-outs that look alike come from different tables or passages of the source.

Tests used:
primary cortical neurons = assay: Hemin-induced toxicity in primary cortical neurons (MTT, LIVE/DEAD); type: cell-based; conditions: for pEC50: primary cortical neurons, MTT assay, read-out: EC50 for abrogating hemin toxicity
Source text: (§1) FIGS. 1A-1L: Structurally diverse HIF PHD inhibitors stabilize HIF-1 and abrogate toxicity induced by hemin, a byproduct of blood breakdown, in cortical neurons hippocampal neuroblasts and striatal neuroblasts (not shown).
(§2) Secondary injury from ICH has been attributed to hemin, a breakdown product of hemoglobin (from lysed red blood cells). To investigate the mechanisms of hemin toxicity to neurons in vitro, this experiment exposed primary cortical neurons, immortalized hippocampal neuroblasts (HT22 cells), and immortalized striatal neuroblasts (Q7 cells) to hemin for 24 hours. As expected, a dose dependent loss in viability as measured by MTT reduction or LIVE/DEAD assay in all three cell types was observed. […] To examine whether iron-dependent HIF PHD enzymes can be modulated to protect neurons from hemin-induced toxicity, this experiment examined structurally diverse inhibitors of the HIF PHDs: desferoxamine, cyclopirox, and dihydroxybenzoic acid. […] To test this notion further using a chemical biological approach, the protective effects of cyclopirox, a HIF PHD inhibitor, and a cyclopirox analog with no PHD inhibitory activity but with similar metal binding affinity to cyclopirox were compared. As expected, only the cyclopirox analog with PHD inhibitory activity was neuroprotective.

HIF-1 protein = HIF-1 protein stabilisation in primary neurons (Western blot); type: cell-based; conditions: primary neurons, Western blot
Source text: FIGS. 1A-1L: Structurally diverse HIF PHD inhibitors stabilize HIF-1 and abrogate toxicity induced by hemin, a byproduct of blood breakdown, in cortical neurons hippocampal neuroblasts and striatal neuroblasts (not shown). […] FIGS. 6A-6I. […] Expression of ATF4 was forced into primary neurons, which induces death of these neurons by MTT assay (FIG. 6D) or LIVE/DEAD staining, Green is live, Red is dead (FIG. 6E).

HIF PHDs [1] = assay: ODD-luciferase reporter mice, in vivo bioluminescence imaging and tissue lysates; conditions: in vivo bioluminescence imaging; intraperitoneal; adaptoquin 30 mg/kg
Source text: FIGS. 3A-3G. Validation of adaptoquin as a novel HIF PHD inhibitor. […] Under steady state conditions, activity of HIF PHD2 with its co-substrate 2-oxoglutarate involves two peaks that represent non-hydroxylated and hydroxylated peptide. The hydroxylated peptide disappears in the presence of HIF PHD2 inhibition by adaptoquin. […] The reporter contains the ODD domain of HIF-1 which confers HIF PHD regulated stability on it. It is expressed in all cells of the body, but is destabilized in the absence of HIF PHD inhibition and stabilized in its presence. Quantitative measurements confirm stability of the ODD-luc in brain, kidney and liver (FIGS. 3D and 3E.).
To identify HIF PHD inhibitors suitable for testing in ICH, the experiment first sought to identify which of the known HIF PHD inhibitors could penetrate the blood brain barrier to inhibit HIF PHD activity in the CNS. To monitor HIF PHD activity dynamically, the experiment utilized mice that had previously been engineered to ubiquitously express the oxygen degradation domain (ODD) of HIF-1α fused to firefly luciferase. The ODD domain contains proline 402 and 564, which are hydroxylated by the HIF PHDs to degrade HIF-1 or the ODD-luciferase. Accordingly, these mice have been used previously to track HIF PHD activity in diverse organs in vivo using in vivo bioluminescence imaging.
To verify that the changes in light in the brain reflect parenchymal changes in ODD-luciferase levels rather than increases in changes in skin or dural ODD-luciferase, ODD-luciferase activity was measured normalized to total protein in lysates from distinct brain regions using a luminometer.

HIF PHDs [2] = assay: ODD-luciferase cell based assay
[3] = test system: immortalized striatal neuroblasts (Q7 cells); assay: Hemin-induced toxicity in striatal neuroblasts (MTT); type: cell-based; conditions: MTT assay, read-out: EC50 for abrogating hemin toxicity
Source text: as §1, §2

[4] = test system: immortalized hippocampal neuroblasts (HT22 cells); assay: Hemin-induced toxicity in hippocampal neuroblasts (MTT); type: cell-based; conditions: MTT assay, read-out: EC50 for abrogating hemin toxicity
Source text: as §1
as §2, with “neuroprotective. […]” for “neuroprotective.”

SMILES | pEC50 (primary cortical neurons; Primary cortical neuron) | Prevention of hemin-induced death (primary cortical neurons; neurons, FIGS. 1M, 1O-1R) | Stabilisation of HIF-1 protein (HIF-1 protein) | ODD-luciferase activity in brain (HIF PHDs [1]) | ODD-luciferase activity in cell based assays (HIF PHDs [2]) | pEC50 (primary cortical neurons) | pEC50 [3] | pEC50 [4]
Cc1cc(C2CCCCC2)n(O)c(=O)c1 [cyclopirox] | 5.85 | prevents hemin-induced death | stabilize HIF-1 protein | failed to increase ODD-luciferase activity in the brain | induced the ODD-luciferase activity in cell based assays |  |  | 
CC(=O)N(O)CCCCCNC(=O)CCC(=O)N(O)CCCCCNC(=O)CCC(=O)N(O)CCCCCN [Desferoxamine] |  |  | stabilize HIF-1 protein | failed to increase ODD-luciferase activity in the brain | induced the ODD-luciferase activity in cell based assays | 4.47 | 4.57 | 4.29
